Here are results for 95 molecules from PubChem BioAssay AID602234 (The Scripps Research Institute Molecular Screening Center, 2012).

The structures appear in SMILES notation. pIC50: −log10 of the molar value. Active and inactive are the calls of the source. How the calls were made is not given here.

A short description of the test: NCOA3 reporter inhibition potency – cell-based, luminescence, counter-screen for SRC1 inhibitor project, dose response (AID 602234).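 Further: HEK293 cells co-transfected with pGL4.31 reporter and pBIND-SRC3 fusion vector; potency for inhibition of reporter luminescence with Gossypol as full inhibition.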 The following applies: transfected HEK293 cells, counter-screen luciferase reporter. (Counterscreens check selectivity or assay interference.)

On to `Cc1cccc(C)c1-c1ccc(CN2C(CC(C)C)C(=O)N(Cc3cn(CC4CCCCC4)nn3)CCS2(=O)=O)cc1` (stereo not given), for which the pIC50 (usually −log10 of the IC50, conventionally taken in molar units) is 5.09.

For `c1cc2c(cn1)cnc1cscc12`, the negative logarithm of the IC50 (pIC50) is 5.35.

For `CCN(CC)CCNC(=O)c1ccc(NC(=O)C2CCN(c3ncnc4sc(C)c(C)c34)CC2)cc1`, the pIC50 is 5.41.

With `O=C(CCl)N(c1ccccc1)C1CCS(=O)(=O)C1` (stereo not given), the negative-log IC50 (pIC50) is 5.76.

Regarding `CC(C)n1c(SCC(=O)Nc2nc3c(s2)CCCC3)nc2c1c(=O)n(C)c(=O)n2C`, the pIC50 is 5.23.

Regarding `Cc1nc(N2CCC(C(N)=O)CC2)c2c(-c3cccs3)csc2n1`, the negative logarithm of the IC50 (pIC50) was 5.48.

With `O=C(NC1CCCCC1)C(c1cccnc1)N(C(=O)CCl)c1cccc(Cl)c1` (stereo not given), the pIC50 is 6.30.

As for `NC(=S)NN=Cc1nccc2ccccc12`, the negative-log IC50 (pIC50) was 6.36.

Take `CN(C)c1ccc(Nc2ncnc3ccc(Br)cc23)cc1`: the pIC50 was 5.68.

On to `CC(=O)NC(c1cc(Cl)c2cccnc2c1O)C1CC1` (stereo not given), for which the pIC50 is 5.21.

As to `CCOc1ccc(/C=C2\SC(=S)N(CCCC(=O)NCCCN3CCOCC3)C2=O)cc1`, the negative-log IC50 (pIC50) is 5.23.

As for `C=CCn1c(Oc2ccccc2F)nc2c1c(=O)n(C)c(=O)n2C`, the negative logarithm of the IC50 (pIC50) is 5.47.

Regarding `Fc1cccc(CSc2nnc3ccc(-c4ccncc4)nn23)c1`, the IC50 (usually the concentration that gives 50% inhibition) is > 35.8 µM (inactive).

`O=[N+]([O-])c1ccc(N(CCO)CCO)c2c1no[n+]2[O-]`: the negative-log IC50 (pIC50) is 5.19.

In the case of `CCN(Cc1ccncc1)C(=O)CC1C(=O)NCCN1Cc1ccc(F)c(F)c1` (stereo not given), the pIC50 was 5.31.

As to `O=C(OC(c1ccccc1)c1nccc2ccccc12)c1ccccc1` (stereo not given), the negative logarithm of the IC50 (pIC50) was 6.18.

Take `O=C(COC(=O)c1ccc[nH]c1=O)Nc1ccc(N2CCCCC2)cc1`: the pIC50 is 5.27.

Turning to `CCOC(=O)CSc1cc(-c2ccccc2)nc2ncnn12`, the IC50 is > 35.9 µM (inactive).

With `O=[N+]([O-])c1ccc2c(c1)-c1ccccc1C2=NO`, the negative logarithm of the IC50 (pIC50) is 5.48.

Turning to `COc1ccc(Oc2nc3c(c(=O)n(C)c(=O)n3C)n2C)cc1`, the negative-log IC50 (pIC50) was 5.11.

On to `O=C(Nc1cccc(Cl)c1)Nc1nnc(-c2ccncc2)s1`, for which the negative-log IC50 (pIC50) was 5.44.

With `CCCS(=O)(=O)c1c(S(=O)(=O)CCC)c2c(C)cccn2c1C(=O)N/N=C/c1cc(O)cc(O)c1`, the IC50 was 10.2 µM (inactive).

On to `O=C(CCn1cnc(-c2ccccc2)c1-c1ccccc1)N/N=C/c1ccccc1O`, for which the IC50 is 12.2 µM (inactive).

For `Cc1ccc(S(=O)(=O)NC(CC(C)C)C(=O)NCC(c2ccco2)N2CCCCC2)cc1` (stereo not given), the pIC50 is 5.51.

For the molecule `Cc1ccc2occ(/C=N/NC(=O)[C@@H](N)Cc3ccccc3)c(=O)c2c1`, the pIC50 is 5.16.

On to `C=C1C(=O)[C@@]23C[C@H]4[C@@H]5[C@@]6(C)CCC[C@@]57[C@@H]2[C@@H](O)[C@@H]1C[C@H]3[C@H]7N4C6`, for which the negative-log IC50 (pIC50) is 5.36.

For `COc1ccc(-c2cnc(N)nc2-c2ccc(OC)cc2O)cc1`, the pIC50 is 5.15.

In the case of `COc1cc(OC)c2cc(C(=O)N/N=C/c3cccc(OC)c3O)[nH]c2c1`, the negative-log IC50 (pIC50) was 5.45.

Regarding `O=C(O)CN1C(=O)/C(=C\c2ccccc2OCc2ccc(Cl)cc2Cl)SC1=S`, the IC50 is 11 µM (inactive).

Regarding `O=C1c2cccc(OCc3ccc(F)cc3)c2CCN1Cc1ccccc1`, the pIC50 is 5.38.

On to `NC(=S)NN=Cc1nccc2c(N)cccc12`, for which the negative-log IC50 (pIC50) was 5.35.

Turning to `Cc1sc2ncnc(N3CCC(C(=O)Nc4cc(S(C)(=O)=O)ccc4Cl)CC3)c2c1C`, the IC50 is 10.1 µM (inactive).

On to `Cc1ccc(N(Cc2cc(=O)[nH]c3ccccc23)C(=O)CCl)c(C)c1`, for which the pIC50 was 5.57.

As to `Cc1nc2c(-c3ccc(Cl)cc3)c(C)[nH]n2c(=O)c1Cc1ccccc1`, the negative logarithm of the IC50 (pIC50) was 5.35.

On to `COc1cccc(/C=N/NC(=O)C(=O)Nc2ccccc2OC(F)(F)C(F)F)c1O`, for which the pIC50 is 5.25.

As to `CC(C)(C)OC(=O)NCC(=O)Oc1cc2oc(=O)cc(-c3ccccc3)c2cc1Cl`, the IC50 is 11.5 µM (inactive).

`O=C(NC(NC(=S)N1CCOCC1)C(Cl)(Cl)Cl)c1ccc(Cl)cc1` (stereo not given): the pIC50 is 5.40.

For the molecule `Cc1noc(/C=C/c2ccco2)c1S(=O)(=O)N1CCC(C(=O)Nc2ccc(Cl)cn2)CC1`, the IC50 was 11.3 µM (inactive).

For `COc1ccccc1/C=C\C(=O)NCC(=O)N/N=C/c1cccc(OC)c1O`, the IC50 was 12.9 µM (inactive).

As to `CC1(C)Cc2c(ccc3ccccc23)C(=O)N1`, the negative-log IC50 (pIC50) is 5.49.

`Cc1c(CC(=O)NCCCC(=O)O)c(=O)oc2cc3c(cc12)CCC(C)(C)O3`: the negative logarithm of the IC50 (pIC50) was 5.41.

For `COc1ccccc1-c1cc2nc(-c3ccccc3)cc(N3CCN(C(=O)c4ccco4)CC3)n2n1`, the negative logarithm of the IC50 (pIC50) is 5.25.

Regarding `Cc1ccc(NC(=O)C2CCN(c3ncnc4sc(C)c(C)c34)CC2)cc1S(=O)(=O)N(C)C`, the IC50 was > 12 µM (inactive).

With `Cc1cc(C)nc(SCc2ccc(C(=O)N/N=C/c3cccc(O)c3O)cc2)n1`, the pIC50 is 5.33.

Regarding `CCOc1ccc(/C=C2\SC(=S)N(CCC(=O)O)C2=O)cc1`, the pIC50 is 5.67.

On to `Cc1nn(CC(=O)N2CCN(c3cccc(C(F)(F)F)c3)CC2)c(=O)c2cccn12`, for which the negative-log IC50 (pIC50) was 5.29.

Regarding `CC(=O)NC(c1cc(Cl)c2cccnc2c1O)C(C)C` (stereo not given), the negative-log IC50 (pIC50) was 5.20.

`O=C(CSc1nc(-c2cccs2)cc(C(F)(F)F)n1)Nc1cc(OCC(F)(F)C(F)F)cc([N+](=O)[O-])c1`: the IC50 was > 35.9 µM (inactive).

With `COC(=O)c1sc2cnccc2c1N`, the negative logarithm of the IC50 (pIC50) is 5.08.

As to `COC(=O)c1cccc2c1-c1ccccc1/C2=N/O`, the negative logarithm of the IC50 (pIC50) was 5.59.

On to `O=C(N/N=C(\c1ccccc1)c1ccccn1)c1ccccc1Cl`, for which the pIC50 was 5.34.

For `NC(=O)c1cc(Sc2ccccc2)nc2ccccc12`, the IC50 is 10.9 µM (inactive).

As to `COc1cccc(C2=CC(=O)CC(C)(C)C2)c1`, the negative logarithm of the IC50 (pIC50) was 5.20.

For `O=C1CCC/C1=c1\s/c(=C/c2cccnc2)c(=O)n1-c1ccccc1`, the negative logarithm of the IC50 (pIC50) is 5.21.

In the case of `COc1ccc(OC)c(/C=C2\NC(=O)NC2=O)c1`, the pIC50 was 5.22.

On to `Nc1nc(CCl)nc(Nc2cccc3ccccc23)n1`, for which the pIC50 was 5.44.

Consider `Cc1nn(C(C)(C)C)c(C)c1/C=N/OC(=O)Nc1ccc(Cl)c(Cl)c1`, for which the pIC50 was 5.68.

As for `CS(=O)(=O)Nc1cccc(NC(=O)C2Cc3c(-c4ccco4)ccnc3O2)c1` (stereo not given), the IC50 is > 12 µM (inactive).

`Cc1ccccc1C(=O)/C(C#N)=N/Nc1c(C)n(C)n(-c2ccccc2)c1=O`: the negative logarithm of the IC50 (pIC50) was 5.45.

Turning to `COc1ccccc1N(C(=O)CCl)c1cn(C(C)=O)c2ccccc12`, the pIC50 was 5.42.

Turning to `Cc1ccc(/C=C2\SC(=S)N(CCCC(=O)NC3CCCC3)C2=O)cc1`, the negative logarithm of the IC50 (pIC50) was 5.80.

Turning to `c1nc2sc3c(c2c2nnnn12)CCCC3`, the pIC50 is 5.01.

Take `COc1ccc(/C=C2/SC(=S)N(CCC(=O)O)C2=O)cc1`: the pIC50 was 5.97.

In the case of `Cc1ccc(/C=C2/SC(=S)N(CCCC(=O)Nc3ccc(O)cc3)C2=O)cc1`, the pIC50 is 5.49.

On to `COc1cc2c3c([nH]c2cc1F)C(=O)NCC3`, for which the negative logarithm of the IC50 (pIC50) was 5.43.

`CC1CCN(C(=O)c2scc3c2OCCO3)CC1`: the IC50 was 10 µM (inactive).

As for `O=C(N/N=C/c1coc2ccc(Cl)cc2c1=O)c1ccc(O)cc1`, the pIC50 was 5.44.

Regarding `Cc1nc2ccccn2c1-c1ccnc(=S)[nH]1`, the negative logarithm of the IC50 (pIC50) is 5.37.

`O=C(CCl)N1N=C(c2ccco2)CC1c1ccco1` (stereo not given): the negative-log IC50 (pIC50) was 6.12.

On to `Cc1ccc(C)c(NC(=O)c2ccccc2NS(=O)(=O)c2cc([N+](=O)[O-])ccc2C)c1`, for which the negative-log IC50 (pIC50) is 5.84.

For the molecule `CN(CC(=O)Nc1ccc(Cl)c(C(F)(F)F)c1)C(=O)C1CC(=O)N(c2ccc3c(c2)OCCO3)C1` (stereo not given), the pIC50 was 5.15.

On to `CC(C)(C)c1cc(C(=O)N/N=C/c2ccc(O)cc2)n(-c2ccccc2)n1`, for which the IC50 was 27.1 µM (inactive).

Consider `CC(C)n1c(-c2cccnc2)nc2cnccc21`, for which the negative-log IC50 (pIC50) is 5.28.

For the molecule `COc1ccc(Nc2ncnc3ccc(C)cc23)cc1`, the negative-log IC50 (pIC50) is 5.58.

Turning to `CCc1ccc(/C=C2\SC(=S)N(CCCC(=O)NCCCN3CCOCC3)C2=O)cc1`, the pIC50 was 5.48.

In the case of `CCOc1ccc(-c2noc(CCC(=O)O)n2)cc1`, the IC50 is 15.2 µM (inactive).

Consider `Cc1ccc(NC(=O)NC2CC(=O)N(c3ccc4c(c3)OCCO4)C2)cc1C` (stereo not given), for which the negative logarithm of the IC50 (pIC50) is 5.97.

For `O=C(Nc1nc(-c2ccccn2)cs1)c1cccc(S(=O)(=O)N2CCOCC2)c1`, the IC50 is > 12 µM (inactive).

As to `CCN(C(=O)c1cc(S(=O)(=O)N2CCCCC2)c[nH]1)c1ccc(OC)cc1`, the negative logarithm of the IC50 (pIC50) is 5.10.

In the case of `Nc1ccc(Oc2ccccc2-c2ccccc2)cc1`, the pIC50 was 5.13.

Consider `O=C(NC(=S)Nc1ccc(N2CCN(C(=O)c3ccccc3)CC2)cc1)c1cccs1`, for which the pIC50 is 5.15.

Regarding `N#Cc1c2ccc(O)cc2n2ccccc12`, the pIC50 is 5.86.

As for `CC(=O)c1cc2c(C)cc(=O)oc2cc1O`, the IC50 is 11.2 µM (inactive).

Turning to `CN(Cc1cnc2nc(N)nc(N)c2n1)c1ccc(C(=O)NC(CCC(=O)O)C(=O)O)c2ccccc12` (stereo not given), the pIC50 is 7.73.

Regarding `O=C(O)c1ccccc1C(=O)Nc1ccc(Oc2cccc3ccccc23)cc1`, the IC50 was > 35.9 µM (inactive).

Turning to `C=CCOc1ccc(/C=C2\SC(=S)N(CCC(=O)O)C2=O)cc1`, the negative-log IC50 (pIC50) was 5.46.

With `CCC(=O)c1ccc(Oc2nc3c(c(=O)n(C)c(=O)n3C)n2CC)cc1`, the pIC50 is 5.54.

For the molecule `CCOc1cccc(/C=N/NC(=O)c2cc(C3CC3)[nH]n2)c1O`, the IC50 was 14.8 µM (inactive).

Consider `C=CCNc1ncnc2ccc(Br)cc12`, for which the pIC50 was 5.64.

Take `O=C(N/N=C/c1cc([N+](=O)[O-])ccc1O)c1cccc(N2CCCC2=O)c1`: the IC50 was > 12 µM (inactive).

Take `CC(=O)c1cccc(NC(=O)COc2cc3oc(=O)c(CC(C)O)c(C)c3cc2Cl)c1` (stereo not given): the pIC50 is 5.20.

With `CCn1c(Oc2ccc(F)cc2)nc2c1c(=O)n(C)c(=O)n2C`, the pIC50 is 5.49.

Take `CCOC(=O)CC(=O)CSc1nccc(-c2cccnc2)n1`: the IC50 was 18.4 µM (inactive).

As for `Cc1ccc(O)c(C(=O)c2cnn(C(=O)COc3ccc(Cl)cc3)c2)c1`, the pIC50 is 5.10.

For the molecule `Cc1ccc(S(=O)(=O)N2[C@@H](c3ccc(C(C)(C)C)cc3)C(C(=O)O)=CC[C@H]2c2ccc(Cl)cc2)cc1`, the IC50 was 10.4 µM (inactive).
